Data published in article PMC9700480 (Drug Design, Development and Therapy, 2022).

System: alloxan-induced diabetic mice
Test: In vivo anti-diabetic activity in alloxan-induced diabetic mice
Set-up: species or system albino mice (strain balb/c)

For C[C@H]1O[C@H](O[C@H]2[C@H](O)[C@@H](O)[C@@H](O[C@H]3[C@H](O)[C@@H](O)C(O)O[C@@H]3CO)O[C@@H]2CO)[C@H](O)[C@@H](O)[C@@H]1N[C@H]1C=C(CO)[C@@H](O)[C@H](O)[C@H]1O (some centres unmarked) [Acarbose], the Creatinine content (day 21, compared with diabetic control) was “significant (p < 0.05) decrease in creatinine content” and the “level of insulin in serum” value (day 21, FA2 at high dose) was 25 ± 3.1 pmol/L.
